Source: patent US5428038A, “Benzopyranones, a method for producing them and uses therefor” (Dr. Willmar Schwabe GmbH & Co., priority 1991, dated 1995)

What was measured:
[1] = system: ovalbumin-induced anaphylactic paw edema; assay: Passive rat paw anaphylaxy (inhibition of edema volume; antiallergic and anti-inflammatory); type: in vivo, male Sprague-Dawley rats; conditions: for inhibition in vivo at 25 mg/kg: 25 mg/kg p.o. 1 h before test; for inhibition in vivo at 30 mg/kg: 30 mg/kg p.o. 1 h before test
Experimental: The determination of the antiallergic and anti-inflammatory properties of the compounds in accordance with the invention was using a passive rat paw anaphylaxy model.
Male Sprague-Dawley rats were utilized for all tests. The animals were kept under standardized environmental conditions with free access to food and water. For sensitization to the antigen 100 μl of a mouse antiserum to ovalbumin was injected sublplantarly into the left rear paw. […] The opposite paw was for control injected subplantarly only with 100 μl of the solvent (sterile physiological NaCl solution). Overnight the investigated animals were deprived of food but had water ad lib.
Per group in all tests between 6 and 8 animals were used. One hour later the anaphylactic reaction was caused by the intravenous injection of 10 mg/10 ml/kg ovalbumin in physiological NaCl solution. […] The edema volume was calculated from the difference between the values of the two paws. The antiallergic action is in this case expressed as a percentage inhibition of the edema volume of the animals in the test group as compared with control groups undergoing parallel investigation. […] The determination of the ED50 values was performed by linear regression after log transformation of the administered doses, at least three dosage rates being employed.

[2] = system: NMDA-induced death; assay: NMDA test (25 mg/kg i.v.), prevention of NMDA-induced death (neuroprotective efficacy); type: in vivo, male NMRI mice; conditions: Mus musculus, po, NMDA 25 mg/kg i.v.; for responders at 100 mg/kg: 100 mg/kg p.o. 1 h before test; for ED50: 1 h, dose protecting 50% of animals against NMDA-induced death one hour after application; for responders at 25 mg/kg: 25 mg/kg p.o. 1 h before test; for responders at 5 mg/kg: 5 mg/kg p.o. 1 h before test
Experimental: In order to determine the neuroprotective and anticonvulsive activity of the compounds in accordance with the invention of the general formula I, two slightly different methods were employed as follows: […]
1. In order to determine the neuroprotective efficacy NMDA at a rate of 25 mg/kg/10 ml was administered intravenously to male NMRI mice with a body weight of 20 to 25 g. As a consequence of this application the animals suffer clonic and partly tonic convulsions, which lead to death. As a criterion for the efficacy of the investigated compounds prevention of death is used.
All animals used in the investigations had free access to food and water prior to the experiments. The test and reference substances were all administered as a suspension in 0.2% agar or water, partly by the intermediary of solution promoters such as for instance PEG-400, perorally using an esophageal probe. Control animals received the same volumes of the solvent with optional solution promoters. One hour after the application of the substance NMDA was administered intravenously and the animals observed for the occurrence of convulsions.
In table 1 the results of the tests (NMDA 25 mg i.v.) performed in accordance with method 1 are compiled with dosages of 5-100 mg of the compounds in accordance with the invention per kg of body weight as compared with known NMDA-antagonists. As a percentage efficacy the percentage of surviving animals is used.
The determination of the ED50 values was performed in accordance with the method described in Lichtfield and Wilcoxon, J. Pharmacol. exp. Therapeut. 96, 99 (1949) in each case with 4 to 5 groups of 10 animals per dosage rate.

[3] = Rattus norvegicus, po, read-out: Protective action (percentage inhibition of edema volume)
[4] = read-out: Protective action (percentage of surviving animals)
[5] = Rattus norvegicus, po, p.o. 1 h before test, linear regression after log transformation of doses

## COc1cc2oc(=O)cc(-c3ccccc3)c2cc1OCCCN1CCC(c2ccccc2)CC1 [Example 40, 7-methoxy-4-phenyl-6-[3-(4-phenyl-1-piperidinyl)propoxy]-2H-1-benzopyran-2-one]
[1]; [3]
  inhibition in vivo at 25 mg/kg: 27%
[2]; [4]
  responders at 100 mg/kg: 37.5%

## COc1cc2oc(=O)c3c(c2cc1OCCCN1CCN(c2ccccc2)CC1)CCC3 [Example 45, 2,3-dihydro-7-methoxy-8-[3-(4-phenyl-1-piperazinyl)propoxy]cyclopenta[c][1]benzopyran-4(1H)-one]
[1]; [3]
  inhibition in vivo at 25 mg/kg: 69%
[2]
  ED50: 1.2 mg/kg
[2]; [4]
  responders at 25 mg/kg: 100%

## COc1cc2ccc(=O)oc2cc1OCCCN1CCN(C(c2ccc(F)cc2)c2ccc(F)cc2)CC1 [Example 8, 7-{3-[4-(bis(4-fluorophenyl)methyl)-1-piperazinyl]propoxy}-6-methoxy-2H-1-benzopyran-2-one]
[1]; [3]
  inhibition in vivo at 25 mg/kg: 35%
[2]; [4]
  responders at 100 mg/kg: 62.5%

## COc1cc2oc(=O)c(C)c(C)c2cc1OCCCN1CCN(c2ccccc2)CC1 [Example 28, 7-methoxy-3,4-dimethyl-6-[3-(4-phenyl-1-piperazinyl)propoxy]-2H-1-benzopyran-2-one]
[1]; [3]
  inhibition in vivo at 25 mg/kg: 72%
[2]; [4]
  responders at 25 mg/kg: 87.5%

## CC(C)Oc1cc2ccc(=O)oc2cc1OCCCN1CCC(c2ccccc2)CC1 [Example 12, 6-(1-methylethoxy)-7-[3-(4-phenyl-1-piperidinyl)propoxy]-2H-1-benzopyran-2-one]
[1]; [3]
  inhibition in vivo at 25 mg/kg: 12%
[2]; [4]
  responders at 25 mg/kg: 62.5%

## COc1cc2oc(=O)cc(C)c2cc1OCCCN1CCC(c2ccccc2)CC1 [Example 27, 7-methoxy-4-methyl-6-[3-(4-phenyl-1-piperidinyl)propoxy]-2H-1-benzopyran-2-one]
[1]; [3]
  inhibition in vivo at 25 mg/kg: 40%
[2]; [4]
  responders at 25 mg/kg: 50%

## COc1cc2oc(=O)c3c(c2cc1OCCN1CCC(c2ccccc2)CC1)CCC3 [Example 48, 2,3-dihydro-7-methoxy-8-[2-(4-phenyl-1-piperidinyl)ethoxy]cyclopenta[c][1]benzopyran-4(1H)-one]
[1]; [3]
  inhibition in vivo at 25 mg/kg: 35%
[2]
  ED50: 4 mg/kg
[2]; [4]
  responders at 5 mg/kg: 100%

## COc1cc2oc(=O)ccc2cc1OCCCN1CCC(=C(c2ccc(F)cc2)c2ccc(F)cc2)CC1 [Example 15, 6-{3-[4-(bis(4-fluorophenyl)methylene)-1-piperidinyl]propoxy}-7-methoxy-2H-1-benzopyran-2-one]
[1]; [3]
  inhibition in vivo at 25 mg/kg: 60%
[2]; [4]
  responders at 25 mg/kg: 50%

## COc1cc2ccc(=O)oc2cc1OCCCN1CCC(C(O)(c2ccccc2)c2ccccc2)CC1 [Example 17, 7-{3-[4-(diphenylhydroxymethyl)-1-piperidinyl]-propoxy}-6-methoxy-2H-1-benzopyran-2-one]
[1]; [3]
  inhibition in vivo at 25 mg/kg: 83%
[2]; [4]
  responders at 100 mg/kg: 37.5%

## COc1cc2oc(=O)c3c(c2cc1OCCCN1CCN(c2ccccc2)CC1)CCCC3 [Example 42, 7,8,9,10-tetrahydro-3-methoxy-2-[3-(4-phenyl-1-piperazinyl)propoxy]-6H-dibenzo[b,d]pyran-6-one]
[1]; [3]
  inhibition in vivo at 25 mg/kg: 39%
[2]; [4]
  responders at 25 mg/kg: 100%

## COc1cc2oc(=O)cc(-c3ccccc3)c2cc1OCCCN1CCN(c2ccccc2)CC1 [Example 39, 7-methoxy-4-phenyl-6-[3-(4-phenyl-1-piperazinyl)propoxy]-2H-1-benzopyran-2-one]
[1]; [3]
  inhibition in vivo at 25 mg/kg: 26%
[2]; [4]
  responders at 25 mg/kg: 62.5%

## COc1cc2oc(=O)ccc2cc1OCCCN1CCC(C(c2ccccc2)c2ccccc2)CC1 [Example 16, 6-{3-[4-(diphenylmethyl)-1-piperidinyl]propoxy}-7-methoxy-2H-1-benzopyran-2-one]
[1]; [3]
  inhibition in vivo at 25 mg/kg: 60%
[2]; [4]
  responders at 100 mg/kg: 75%

## Cc1c(C)c2ccc(OCCCN3CCN(Cc4ccc(Cl)cc4)CC3)cc2oc1=O [picumast, reference compound]
[1]; [3]
  inhibition in vivo at 25 mg/kg: -21%

## COc1cc2oc(=O)c3c(c2cc1OCCCCN1CCN(c2ccccc2)CC1)CCC3 [Example 46, 2,3-dihydro-7-methoxy-8-[4-(4-phenyl-1-piperazinyl)butyloxy]cyclopenta[c][1]benzopyran-4(1H)-one]
[1]; [3]
  inhibition in vivo at 25 mg/kg: 35%
[2]
  ED50: 3.9 mg/kg
[2]; [4]
  responders at 25 mg/kg: 100%

## CN(C)CCOC(c1ccccc1)c1ccccc1 [diphenhydramine, reference compound]
[1]; Rattus norvegicus, po, 100 mg/kg p.o. 1 h before test, read-out: Protective action (percentage inhibition of edema volume)
  inhibition in vivo at 100 mg/kg: 54%
[1]; [5]
  ED50: 73 mg/kg

## COc1ccc(CCN2CCC(Nc3nc4ccccc4n3Cc3ccc(F)cc3)CC2)cc1 [astemizole, reference compound]
[1]; Rattus norvegicus, po, 10 mg/kg p.o. 1 h before test, read-out: Protective action (percentage inhibition of edema volume)
  inhibition in vivo at 10 mg/kg: 70%
[1]; [5]
  ED50: 3.1 mg/kg

## COc1ccc(N2CCN(CCCOc3cc4c5c(c(=O)oc4cc3OC)CCC5)CC2)cc1 [Example 56, 2,3-dihydro-7-methoxy-8-{3-[4-(4-methoxyphenyl)-1-piperazinyl]propoxy}cyclopenta[c][1]benzopyran-4(1H)-one]
[2]
  ED50: 2.6 mg/kg
[2]; [4]
  responders at 5 mg/kg: 87.5%

## CN1CCC(=C2c3ccccc3CC(=O)c3sccc32)CC1 [ketotifen, reference compound]
[1]; [3]
  inhibition in vivo at 30 mg/kg: 77%
[1]; [5]
  ED50: 5.6 mg/kg

## O=C(O)c1cc(=O)c2c(OCC(O)COc3cccc4oc(C(=O)O)cc(=O)c34)cccc2o1 [cromoglycate, reference compound]
[1]; Rattus norvegicus, 2.25 mg/kg, intravenous immediately prior to test, read-out: Protective action (percentage inhibition of edema volume)
  inhibition in vivo at 2.25 mg/kg: 58%
[1]; Rattus norvegicus, intravenous treatment immediately prior to test (footnote), head says p.o.
  ED50: 1.1 mg/kg
[1]; oral
  oral effectiveness: orally not effective

## COc1cc2ccc(=O)oc2cc1OCCCN1CCN(c2ccccc2)CC1 [Example 2, 6-methoxy-7-[3-(4-phenyl-1-piperazinyl)propoxy]-2H-1-benzopyran-2-one]
[2]; [4]
  responders at 25 mg/kg: 100%

## COc1cc2oc(=O)ccc2cc1OCC(O)CN1CCN(c2cccc(C(F)(F)F)c2)CC1 (racemic) [Example 20, (±)-6-{2-hydroxy-3-[4-(3-trifluoromethylphenyl)-1-piperazinyl]propoxy}-7-methoxy-2H-1-benzopyran-2-one]
[2]; 50 mg/kg p.o. 1 h before test, read-out: Protective action (percentage of surviving animals)
  responders at 50 mg/kg: 87.5%

## COc1cc2oc(=O)c3c(c2cc1OCCCN1CCN(c2ccccc2F)CC1)CCC3 [Example 66, 8-{3-[4-(2-fluorophenyl)-1-piperazinyl]propoxy}-2,3-dihydro-7-methoxy-cyclopenta[c][1]benzopyran-4(1H)-one]
[2]; [4]
  responders at 5 mg/kg: 100%

## CCCCc1c(C)c2cc(OCCCN3CCC(c4ccccc4)CC3)c(OC)cc2oc1=O [Example 38, 3-butyl-7-methoxy-4-methyl-6-[3-(4-phenyl-1-piperidinyl)propoxy]-2H-1-benzopyran-2-one]
[2]; [4]
  responders at 25 mg/kg: 87.5%

## CCOc1ccccc1N1CCN(CCCOc2cc3c4c(c(=O)oc3cc2OC)CCC4)CC1 [Example 57, 8-{3-[4-(2-ethoxyphenyl)-1-piperazinyl]propoxy}-2,3-dihydro-7-methoxy-cyclopenta[c][1]benzopyran-4(1H)-one]
[2]; [4]
  responders at 5 mg/kg: 100%

## COc1cc2oc(=O)c(C)c(C)c2cc1OCCCN1CCN(Cc2ccc(Cl)cc2)CC1 [Example 30, 6-{3-[4-(4-chlorophenylmethyl)-1-piperazinyl]-propoxy}-7-methoxy-3,4-dimethyl-2H-1-benzopyran-2-one]
[2]; [4]
  responders at 100 mg/kg: 37.5%

## COc1cc2oc(=O)cc(C(F)(F)F)c2cc1OCCCN1CCN(c2ccccc2)CC1 [Example 31]
[2]; [4]
  responders at 25 mg/kg: 87.5%

## O=c1[nH]c2ccccc2n1CCCN1CCN(C(c2ccccc2)c2ccccc2)CC1 [oxatomide, reference compound]
[1]; [3]
  inhibition in vivo at 30 mg/kg: 75%
[1]; [5]
  ED50: 7.3 mg/kg

## COc1cccc(N2CCN(CCCOc3cc4c5c(c(=O)oc4cc3OC)CCC5)CC2)c1 [Example 55, 2,3-dihydro-7-methoxy-8-{3-[4-(3-methoxyphenyl)-1-piperazinyl]propoxy}cyclopenta[c][1]benzopyran-4(1H)-one]
[2]
  ED50: 1.1 mg/kg
[2]; [4]
  responders at 5 mg/kg: 100%
